According to PubChem BioAssay AID1259407 (Chemical Carcinogenesis Research Information System (CCRIS), 2018):
Activity calls are given as the source filed them. The rule behind the calls is not given here.

Test system: CCRIS mutagenicity, Ames/micronucleus/aberration tests
Assay: CCRIS mutagenicity studies
[1] = Test System: AMES SALMONELLA TYPHIMURIUM, Strain/Indicator: TA98, Metabolic Activation: NONE, Method: PREINCUBATION
[2] = Test System: AMES SALMONELLA TYPHIMURIUM, Strain/Indicator: TA100, Metabolic Activation: NONE, Method: PREINCUBATION

With O=C(O)c1ccccc1[N+](=O)[O-] the mutagenic call (Test System: AMES SALMONELLA TYPHIMURIUM, Strain/Indicator: TA97, Metabolic Activation: HAMSTER, LIVER, S-9, AROCLOR 1254 (10%), Method: PREINCUBATION) was “inactive; negative”, the mutagenic call (Test System: AMES SALMONELLA TYPHIMURIUM, Strain/Indicator: TA97, Metabolic Activation: NONE, Method: PREINCUBATION) was “inactive; negative” and the mutagenic call (Test System: AMES SALMONELLA TYPHIMURIUM, Strain/Indicator: TA97, Metabolic Activation: RAT, LIVER, S-9, AROCLOR 1254 (10%), Method: PREINCUBATION) was “inactive; negative”. The mutagenic call (Test System: AMES SALMONELLA TYPHIMURIUM, Strain/Indicator: TA98, Metabolic Activation: HAMSTER, LIVER, S-9, AROCLOR 1254 (10%), Method: PREINCUBATION) was “inactive; negative”, the mutagenic call [1] was “active; positive” and the mutagenic call (Test System: AMES SALMONELLA TYPHIMURIUM, Strain/Indicator: TA98, Metabolic Activation: RAT, LIVER, S-9, AROCLOR 1254 (10%), Method: PREINCUBATION) was “inactive; negative”. The mutagenic call (Test System: AMES SALMONELLA TYPHIMURIUM, Strain/Indicator: TA98, Metabolic Activation: RAT, LIVER, S-9, KANECHLOR 500, Method: PREINCUBATION) was “active; positive”, the mutagenic call (Test System: AMES SALMONELLA TYPHIMURIUM, Strain/Indicator: TA100, Metabolic Activation: HAMSTER, LIVER, S-9, AROCLOR 1254 (5 OR 30%), Method: PREINCUBATION) was “inactive; negative” and the mutagenic call (Test System: AMES SALMONELLA TYPHIMURIUM, Strain/Indicator: TA100, Metabolic Activation: HAMSTER, LIVER, S-9, AROCLOR 1254, FLAVIN MONONUCLEOTIDE, Method: PREINCUBATION) was “inactive; negative”. The mutagenic call (Test System: AMES SALMONELLA TYPHIMURIUM, Strain/Indicator: TA100, Metabolic Activation: HAMSTER, LIVER, S-9, AROCLOR 1254, Method: PREINCUBATION) was “inactive; negative”, the mutagenic call (Test System: AMES SALMONELLA TYPHIMURIUM, Strain/Indicator: TA100, Metabolic Activation: RAT, LIVER, S-9, AROCLOR 1254 (5 OR 30%), Method: PREINCUBATION) was “inactive; negative” and the mutagenic call (Test System: AMES SALMONELLA TYPHIMURIUM, Strain/Indicator: TA100, Metabolic Activation: RAT, LIVER, S-9, AROCLOR 1254 (10%), Method: PREINCUBATION) was “inactive; negative”. For the same compound, the mutagenic call (Test System: AMES SALMONELLA TYPHIMURIUM, Strain/Indicator: TA100, Metabolic Activation: RAT, LIVER, S-9, AROCLOR 1254, FLAVIN MONONUCLEOTIDE, Method: PREINCUBATION) was “inactive; negative”, the mutagenic call (Test System: AMES SALMONELLA TYPHIMURIUM, Strain/Indicator: TA100, Metabolic Activation: RAT, LIVER, S-9, AROCLOR 1254, Method: STANDARD PLATE) was “inactive; negative” and the mutagenic call (Test System: AMES SALMONELLA TYPHIMURIUM, Strain/Indicator: TA100, Metabolic Activation: RAT, LIVER, S-9, KANECHLOR 500, Method: PREINCUBATION) was “active; positive”. The mutagenic call (Test System: AMES SALMONELLA TYPHIMURIUM, Strain/Indicator: TA1535, Metabolic Activation: HAMSTER, LIVER, S-9, AROCLOR 1254 (10%), Method: PREINCUBATION) was “inactive; negative”, the mutagenic call (Test System: AMES SALMONELLA TYPHIMURIUM, Strain/Indicator: TA1535, Metabolic Activation: NONE, Method: PREINCUBATION) was “inactive; negative” and the mutagenic call (Test System: AMES SALMONELLA TYPHIMURIUM, Strain/Indicator: TA1535, Metabolic Activation: RAT, LIVER, S-9, AROCLOR 1254 (10%), Method: PREINCUBATION) was “inactive; negative”. For the same compound, the mutagenic call (Test System: AMES SALMONELLA TYPHIMURIUM, Strain/Indicator: TA1537, Metabolic Activation: NONE, Method: PREINCUBATION) was “inactive; negative” and the mutagenic call (Test System: AMES SALMONELLA TYPHIMURIUM, Strain/Indicator: TA1538, Metabolic Activation: NONE, Method: PREINCUBATION) was “active; positive”.
COC(=O)/C(C#N)=C/c1ccc(Br)o1 was tested, and the mutagenic call [1] was “inactive; negative”.
ClCc1ccc2ccc3cccc4ccc1c2c34 was tested, and the mutagenic call (Test System: AMES SALMONELLA TYPHIMURIUM, Strain/Indicator: TA98, Metabolic Activation: NONE) was “active; positive”, the mutagenic call [1] was “active; positive” and the mutagenic call (Test System: AMES SALMONELLA TYPHIMURIUM, Strain/Indicator: TA98, Metabolic Activation: NONE, Method: STANDARD PLATE) was “active; positive”. For the same compound, the mutagenic call (Test System: AMES SALMONELLA TYPHIMURIUM, Strain/Indicator: TA100, Metabolic Activation: NONE, Method: STANDARD PLATE) was “active; positive”.
For CCN(CC)S(=O)(=O)c1ccc(N)cc1, the mutagenic call [1] was “inactive; negative”, the mutagenic call (Test System: AMES SALMONELLA TYPHIMURIUM, Strain/Indicator: TA98, Metabolic Activation: RAT, LIVER, S-9, AROCLOR 1254, Method: PREINCUBATION) was “inactive; negative” and the mutagenic call [2] was “inactive; negative”. For the same compound, the mutagenic call (Test System: AMES SALMONELLA TYPHIMURIUM, Strain/Indicator: TA100, Metabolic Activation: RAT, LIVER, S-9, AROCLOR 1254, Method: PREINCUBATION) was “inactive; negative”.
With c1cc2ccc3cc4c(c5ccc(c1)c2c35)[C@H]1O[C@H]1CC4 the mutagenic call (Test System: CHINESE HAMSTER V-79, Strain/Indicator: V-79/8-AZAGUANINE, Metabolic Activation: NONE, Method: STANDARD PLATE) was “active; positive”.
In the case of Cc1ccc2c(c1N)C(=O)c1ccccc1C2=O, the mutagenic call (Test System: AMES SALMONELLA TYPHIMURIUM, Strain/Indicator: TA98, Metabolic Activation: HAMSTER, LIVER, S-9, AROCLOR 1254 (30%), Method: PREINCUBATION) is reported as “active; positive”, the mutagenic call [1] is reported as “inactive; negative” and the mutagenic call (Test System: AMES SALMONELLA TYPHIMURIUM, Strain/Indicator: TA98, Metabolic Activation: RAT, LIVER, S-9, AROCLOR 1254 (30%), Method: PREINCUBATION) is reported as “active; positive”. The mutagenic call (Test System: AMES SALMONELLA TYPHIMURIUM, Strain/Indicator: TA100, Metabolic Activation: HAMSTER, LIVER, S-9, AROCLOR 1254 (30%), Method: PREINCUBATION) was “inactive; negative”, the mutagenic call [2] was “inactive; negative” and the mutagenic call (Test System: AMES SALMONELLA TYPHIMURIUM, Strain/Indicator: TA100, Metabolic Activation: RAT, LIVER, S-9, AROCLOR 1254 (30%), Method: PREINCUBATION) was “active; positive”. The mutagenic call (Test System: AMES SALMONELLA TYPHIMURIUM, Strain/Indicator: TA1537 R+, Metabolic Activation: NONE, Method: STANDARD PLATE) was “active; positive”, the mutagenic call (Test System: AMES SALMONELLA TYPHIMURIUM, Strain/Indicator: TA1537 R+, Metabolic Activation: RAT, LIVER, S-9, AROCLOR 1254, Method: STANDARD PLATE) was “active; positive” and the mutagenic call (Test System: MOUSE LYMPHOMA, Strain/Indicator: L5178Y (TK+/TK-), Metabolic Activation: NONE, Method: SUSPENSION/PLATE) was “active; positive”.
For CC(C)CN(N=O)/C(N)=N/[N+](=O)[O-], the mutagenic call (Test System: AMES SALMONELLA TYPHIMURIUM, Strain/Indicator: TA100, Metabolic Activation: RAT, LIVER, S-9, KC500 OR PHENOBARBITAL, Method: LIQUID SUSPENSION) was “active; positive”, the mutagenic call (Test System: AMES SALMONELLA TYPHIMURIUM, Strain/Indicator: TA1535, Metabolic Activation: NONE, Method: STANDARD PLATE) was “active; positive” and the mutagenic call (Test System: AMES SALMONELLA TYPHIMURIUM, Strain/Indicator: TA1535, Metabolic Activation: RAT, LIVER, S-9, KC500 OR PHENOBARBITAL, Method: LIQUID SUSPENSION) was “active; positive”.
